SMILES strings stand for the structures. Structures can show the parent of a compound that is named as a salt. Where two headings read alike, the source gives them in different places.

The target in assay [1] is T1, human norepinephrine transporter (Homo sapiens, UniProt P23975).
T1 construct: expressed in transfected cells
Briefly: Inhibitory action on human norepinephrine transporter ([3H]-norepinephrine uptake in CHO cells). The note with it: CHO, relative to inhibitory activity of 10 μM DMI as 100%. The format is cell-based. In outline: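 Stably transfected CHO-K1 cells plated overnight, then given test compound and [3H]-norepinephrine (20 nM final, from 200 nM) in HEPES-buffered saline with 0.5% BSA for 45 min. After PBS washes, retained radioactivity counted by scintillation. Inhibition at 10 μM or 1 μM compound expressed relative to 10 μM DMI as 100%.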

In assay [2] the target is T2, human serotonin transporter (Homo sapiens, UniProt P31645).
T2 construct: expressed in transfected cells
The assay is described as follows: Inhibitory action on human serotonin transporter ([3H]-5-hydroxytryptamine uptake in CHO cells). It counts as cell-based. The note with it: CHO, relative to inhibitory activity of 10 μM Paroxetine as 100%, read-out: inhibitory rate (%); for inhibition at 1 µM: compound 1 μM. In outline:
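CHO-K1 cells stably expressing human SERT, plated overnight, took up [3H]-5-HT (diluted to 200 nM before a 1:10 addition) for 20 min in HEPES-buffered saline with glucose and 0.5% BSA; radioactivity counted by scintillation. Compounds at 10 μM or 1 μM, activity expressed relative to 10 μM paroxetine set as 100%.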

The mark [3] stands for this setting: read-out: inhibitory rate (%), compound 1 μM.
[4] abbreviates: compound 1 μM, read-out: inhibitory rate (%).

T2 sequence (P31645 whole entry): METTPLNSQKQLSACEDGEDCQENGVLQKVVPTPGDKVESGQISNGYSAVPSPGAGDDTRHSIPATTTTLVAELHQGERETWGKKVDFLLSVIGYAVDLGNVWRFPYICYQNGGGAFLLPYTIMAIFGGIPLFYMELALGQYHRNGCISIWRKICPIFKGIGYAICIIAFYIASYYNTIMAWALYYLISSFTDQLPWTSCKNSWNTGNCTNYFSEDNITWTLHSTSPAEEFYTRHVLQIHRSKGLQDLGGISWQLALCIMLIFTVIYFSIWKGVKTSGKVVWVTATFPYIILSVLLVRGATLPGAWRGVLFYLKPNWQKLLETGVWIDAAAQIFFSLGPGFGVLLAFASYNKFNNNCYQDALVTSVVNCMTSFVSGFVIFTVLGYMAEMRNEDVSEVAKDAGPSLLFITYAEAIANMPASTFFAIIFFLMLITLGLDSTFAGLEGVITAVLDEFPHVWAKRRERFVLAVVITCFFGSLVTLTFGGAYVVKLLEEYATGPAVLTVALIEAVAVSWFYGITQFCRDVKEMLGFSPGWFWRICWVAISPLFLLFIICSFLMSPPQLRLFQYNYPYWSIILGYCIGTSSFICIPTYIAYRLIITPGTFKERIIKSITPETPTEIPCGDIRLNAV
T1 sequence (P23975 whole entry): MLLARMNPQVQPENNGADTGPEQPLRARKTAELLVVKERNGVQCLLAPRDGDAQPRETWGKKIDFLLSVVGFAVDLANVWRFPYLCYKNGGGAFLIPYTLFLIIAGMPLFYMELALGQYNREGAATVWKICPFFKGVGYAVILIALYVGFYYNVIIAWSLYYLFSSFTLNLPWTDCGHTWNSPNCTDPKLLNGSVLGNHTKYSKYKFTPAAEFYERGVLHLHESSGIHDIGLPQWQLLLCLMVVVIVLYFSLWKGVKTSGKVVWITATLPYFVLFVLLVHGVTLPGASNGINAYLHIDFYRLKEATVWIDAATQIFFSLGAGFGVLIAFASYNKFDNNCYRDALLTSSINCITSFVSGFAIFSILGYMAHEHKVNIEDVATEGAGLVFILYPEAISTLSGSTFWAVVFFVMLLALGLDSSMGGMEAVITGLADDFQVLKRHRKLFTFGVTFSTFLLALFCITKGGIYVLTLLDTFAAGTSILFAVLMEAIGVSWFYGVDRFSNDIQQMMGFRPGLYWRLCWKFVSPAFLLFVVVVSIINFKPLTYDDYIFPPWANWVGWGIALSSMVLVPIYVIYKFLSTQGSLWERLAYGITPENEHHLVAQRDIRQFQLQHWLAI

With `CC(=O)NC[C@H]1CNCCO[C@@H]1c1ccc(Cl)c(Cl)c1` (racemic) [Example 6, N-{[(6RS,7SR)-7-(3,4-dichlorophenyl)-1,4-oxazepan-6-yl]methyl}acetamide monohydrochloride], the inhibition at 1 µM is 95% in assay [1] (setting [3]) and 84% in assay [2]. Further, the inhibition at 10 µM in assay [1] (read-out: inhibitory rate (%), compound 10 μM) stood at 97%; in assay [2] (compound 10 μM, CHO cells expressing human serotonin transporter), 98%.

In the case of `O=c1[nH]c(-c2cccn(C[C@@H]3CNCCO[C@H]3c3ccc(Cl)c(Cl)c3)c2=O)no1` [Example 31, 1-{[(6S,7R)-7-(3,4-dichlorophenyl)-1,4-oxazepan-6-yl]methyl}-3-(5-oxo-4,5-dihydro-1,2,4-oxadiazol-3-yl)pyridin-2(1H)-one monohydrochloride], the results for the inhibition at 1 µM in assay [1] (setting [4]) and in assay [2] were 108% and 95%, respectively.

`CC(=O)NC[C@@H]1CNCCO[C@H]1c1ccc(Cl)c(Cl)c1` [Example 32, N-{[(6S,7R)-7-(3,4-dichlorophenyl)-1,4-oxazepan-6-yl]methyl}acetamide 0.5 fumarate]: the inhibition at 1 µM in assay [1] (setting [3]) is 93%; in assay [2], 84%.

Turning to `COCC(=O)NC[C@@H]1CNCCO[C@H]1c1ccc(Cl)c(Cl)c1` [Example 33, N-{[(6S,7R)-7-(3,4-dichlorophenyl)-1,4-oxazepan-6-yl]methyl}-2-methoxyacetamide monohydrochloride], the inhibition at 1 µM in assay [1] (setting [4]) was found to be 100%; in assay [2], 92%.

With `CC(=O)N[C@@H]1CNCCO[C@H]1c1ccc(Cl)c(Cl)c1` [Example 36, N-[(6R,7S)-7-(3,4-dichlorophenyl)-1,4-oxazepan-6-yl]acetamide monofumarate], the inhibition at 1 µM in assay [1] (setting [3]) was 101%; in assay [2], 69%.

On to `NS(=O)(=O)N[C@@H]1CNCCO[C@H]1c1ccc(Cl)c(Cl)c1` [Example 37, N-[(6R,7S)-7-(3,4-dichlorophenyl)-1,4-oxazepan-6-yl]sulfamide monohydrochloride], for which the inhibition at 1 µM turned out to be 102% in assay [1] (setting [4]) and 71% in assay [2].

For `COCC(=O)NC[C@@H]1CNCCO[C@H]1c1ccc(Cl)c(F)c1` [Example 38, N-{[(6S,7R)-7-(4-chloro-3-fluorophenyl)-1,4-oxazepan-6-yl]methyl}-2-methoxyacetamide monohydrochloride], the results for the inhibition at 1 µM in assay [1] (setting [4]) and in assay [2] were 102% and 69%, respectively.

With `[2H]C([2H])([2H])OCC(=O)NC[C@@H]1CNCCO[C@H]1c1ccc(Cl)c(F)c1` [Example 39, N-{[(6S,7R)-7-(4-chloro-3-fluorophenyl)-1,4-oxazepan-6-yl]methyl}-2-[(^2H3)methyloxy]acetamide monohydrochloride], the inhibition at 1 µM in assay [1] (setting [4]) is 102%; in assay [2], 58%.

Regarding `CCOCC(=O)NC[C@@H]1CNCCO[C@H]1c1ccc(Cl)c(F)c1` [Example 40, N-{[(6S,7R)-7-(4-chloro-3-fluorophenyl)-1,4-oxazepan-6-yl]methyl}-2-ethoxyacetamide monohydrochloride], the inhibition at 1 µM in assay [1] (setting [4]) was 104%; in assay [2], 80%.

In the case of `CC(C)OCC(=O)NC[C@@H]1CNCCO[C@H]1c1ccc(Cl)c(F)c1` [Example 41, N-{[(6S,7R)-7-(4-chloro-3-fluorophenyl)-1,4-oxazepan-6-yl]methyl}-2-(1-methylethoxy)acetamide monohydrochloride], the inhibition at 1 µM was 101% in assay [1] (setting [4]) and 70% in assay [2].

Turning to `O=c1[nH]c(-c2cccn(C[C@@H]3CNCCO[C@H]3c3ccc(Cl)c(F)c3)c2=O)no1` [Example 43, 1-{[(6S,7R)-7-(4-chloro-3-fluorophenyl)-1,4-oxazepan-6-yl]methyl}-3-(5-oxo-4,5-dihydro-1,2,4-oxadiazol-3-yl)pyridin-2(1H)-one monohydrochloride], the inhibition at 1 µM was determined as 102% in assay [1] (setting [3]) and 72% in assay [2].

For the compound `O=C(O)c1cccn(C[C@@H]2CNCCO[C@H]2c2ccc(Cl)c(F)c2)c1=O` [Example 44, 1-{[(6S,7R)-7-(4-chloro-3-fluorophenyl)-1,4-oxazepan-6-yl]methyl}-2-oxo-1,2-dihydropyridine-3-carboxylic acid monohydrochloride], the inhibition at 1 µM in assay [1] (setting [4]) came out at 102%; in assay [2] it was 40%.

On to `OC[C@H](O)[C@@H]1OCCNC[C@H]1c1ccc(Cl)c(Cl)c1` [Example 45, (1S)-1-[(6R,7R)-6-(3,4-dichlorophenyl)-1,4-oxazepan-7-yl]ethane-1,2-diol monohydrochloride], for which the inhibition at 1 µM in assay [1] (setting [4]) was found to be 105%; in assay [2], 36%.

`O=c1[nH]c(-c2cccnc2O[C@@H]2CNCCO[C@H]2c2ccc(Cl)c(F)c2)no1` [Example 556, 3-(2-{[(6R,7S)-7-(4-chloro-3-fluorophenyl)-1,4-oxazepan-6-yl]oxy}pyridin-3-yl)-1,2,4-oxadiazol-5(4H)-one monohydrochloride]: the inhibition at 1 µM in assay [1] (setting [4]) is 101%; in assay [2], 77%.

As for `O=c1[nH]c(-c2ccccc2O[C@@H]2CNCCO[C@H]2c2ccc(Cl)c(F)c2)no1` [Example 577, 3-(2-{[(6R, 7S)-7-(4-chloro-3-fluoro-phenyl)-1,4-oxazepan-6-yl]oxy}phenyl)-1,2,4-oxadiazol-5(4H)-one], the inhibition at 1 µM worked out at 97% in assay [1] (setting [4]) and 53% in assay [2].

In the case of `O=c1[nH]c(-c2ncccc2O[C@@H]2CNCCO[C@H]2c2ccc(Cl)c(F)c2)no1` [Example 584, 3-(3-{[(6R, 7S)-7-(4-chloro-3-fluorophenyl)-1,4-oxazepan-6-yl]oxy}pyridin-2-yl)-1,2,4-oxadiazol-5(4H)-one], the inhibition at 1 µM amounted to 107% in assay [1] (setting [4]) and 41% in assay [2].

The values are drawn from patent US20130267494A1, “1,4-OXAZEPANE DERIVATIVES” (priority 2010, published 2013).
